From US8168651B2, “Protein kinase modulators” (Cylene Pharmaceuticals, Inc., priority 2008, dated 2012)
Where two headings read alike, the source gives them in different places.

Key:
[1] = tested on: HCT-116 human colorectal carcinoma cells; assay: Cell-proliferation assay using Alamar Blue dye; assay type: cell-based; conditions: Homo sapiens, HCT-116, HCT-116, second HCT-116 column (c8); read-out: HCT-116 (uM), cell proliferation modulatory activity;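 note: cells exposed to compound for about 4 days, then Alamar Blue added and dye fluorescence read after about 4 h, compared with medium-only control wells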
recombinant human PIM1 = recombinant human PIM1 (Homo sapiens (Human), UniProt P11309); assay: PIM-1 kinase activity in cell-free in vitro assay; assay type: biochemical; conditions: for inhibition at 0.5 µM: 500 nM compound, read-out: PIM-1: % inh 500 nM
Chain of recombinant human PIM1 (P11309 whole entry): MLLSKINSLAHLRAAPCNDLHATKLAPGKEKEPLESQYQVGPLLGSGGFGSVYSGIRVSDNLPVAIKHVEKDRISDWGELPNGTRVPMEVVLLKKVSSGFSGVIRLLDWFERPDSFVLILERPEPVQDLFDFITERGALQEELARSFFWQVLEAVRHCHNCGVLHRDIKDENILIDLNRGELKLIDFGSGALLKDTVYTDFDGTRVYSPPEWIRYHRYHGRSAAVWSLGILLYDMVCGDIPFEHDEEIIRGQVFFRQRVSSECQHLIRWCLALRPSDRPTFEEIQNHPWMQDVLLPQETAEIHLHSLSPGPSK

Row | Compound | IC50 [1] [µM] | inhibition at 0.5 µM (recombinant human PIM1; cell-free assay) [%] | IC50 (recombinant human PIM1; Table 45) [nM] | other results
1 | CN1CCCN(c2nc3cc(C#N)ccc3c3sccc23)CC1 | 2.63 | -10 | – | –
2 | N#Cc1ccc2c(c1)nc(NCCN1CCOCC1)c1ccsc12 | > 10 | -23.8 | – | –
3 | N#Cc1ccc2c(c1)nc(N1CCN(CCO)CC1)c1ccsc12 | 9.38 | -17.6 | – | –
4 | N#Cc1ccc2c(c1)nc(NCCO)c1ccsc12 | > 10 | -2.91 | – | –
5 | CN(C)C1CCN(c2nc3cc(C#N)ccc3c3sccc23)C1 (stereo not drawn) | 3.86 | -16.5 | – | –
6 | N#Cc1ccc2c(c1)nc(NCCN1CCCC1)c1ccsc12 | 2.2 | -22.4 | – | –
7 | CN1CCN(c2nc3cc(C(=O)O)ccc3c3cnccc23)CC1 | > 10 | 40.1 | – | –
8 | Cc1cnc(CNC(=O)c2ccc3c(c2)nc(N2CCN(C)CC2)c2ccncc23)cn1 | > 10 | -23.1 | – | –
9 | CN1CCN(c2nc3cc(C(=O)NNc4ccccn4)ccc3c3sccc23)CC1 | > 10 | -10.9 | – | –
10 | CN1CCN(c2nc3cc(C(=O)NCc4ccncc4)ccc3c3sccc23)CC1 | > 10 | -14.1 | – | –
11 | CN1CCN(c2nc3cc(C(=O)NCc4cccnc4)ccc3c3sccc23)CC1 | > 10 | -16 | – | –
12 | CC(C)OCCNC(=O)c1ccc2c(c1)nc(N1CCN(C)CC1)c1ccsc12 | > 10 | -3.62 | – | –
13 | CN1CCN(c2nc3cc(C(=O)NCC4CCCO4)ccc3c3sccc23)CC1 (stereo not drawn) | > 10 | 11 | – | –
14 | CN1CCN(c2nc3cc(C(=O)NC4CC4)ccc3c3sccc23)CC1 | > 10 | -12.7 | – | –
15 | CONC(=O)c1ccc2c(c1)nc(N1CCN(C)CC1)c1ccsc12 | > 10 | -0.965 | – | –
16 | CN1CCN(c2nc3cc(C(=O)NCc4nccn4C)ccc3c3sccc23)CC1 | > 10 | -14.5 | – | –
17 | CN1CCN(c2nc3cc(C(=O)NCc4cncn4C)ccc3c3sccc23)CC1 | > 10 | -22.5 | – | –
18 | Cn1nc(-c2ccccc2)cc1Nc1nc2cc(C(=O)O)ccc2c2cnccc12 | > 10 | 58.3 | – | IC50 (recombinant human PIM1; cell-free assay): 914 nM
19 | COC(=O)c1ccc2c(c1)nc(Nc1ccccc1C)c1nc(SC)ncc12 | > 10 | 12.5 | – | –
20 | O=C(O)c1ccc2c(c1)nc(N1CCN(c3cnccn3)CC1)c1ccncc12 | – | -2.36 | – | –
21 | CC(=O)Nc1cccc(Nc2nc3cc(C(=O)O)ccc3c3cnccc23)c1 | > 10 | 73.6 | – | IC50 (recombinant human PIM1; cell-free assay): 369 nM
22 | NS(=O)(=O)c1cccc(Nc2nc3cc(C(=O)O)ccc3c3cnccc23)c1 | > 10 | 83.4 | – | IC50 (recombinant human PIM1; cell-free assay): 397 nM
23 | COCCOc1cccc(Nc2nc3c(C(N)=O)cccc3c3cnccc23)c1 | – | – | < 500 | –
24 | NCc1ccc(Nc2nc3c(-c4nnc[nH]4)cccc3c3cnccc23)c(Cl)c1 | – | – | – | IC50 (recombinant human PIM1): < 100 nM
25 | CN1CCN(c2ccc(Nc3nc4c(-c5nnc[nH]5)cccc4c4cnccc34)cc2)CC1 | – | – | – | IC50 (recombinant human PIM1): < 500 nM
26 | c1cc(-c2nnc[nH]2)c2nc(N3CCOCC3)c3ccncc3c2c1 | – | – | – | IC50 (recombinant human PIM1): 3970 nM
27 | COC(=O)c1cccc2c1nc(Cl)c1ccncc12 [drawing 2270] | – | – | > 1100 | –

Second part, led by results:

Row | IC50 [1] [µM] | inhibition at 0.5 µM (recombinant human PIM1; cell-free assay) [%] | IC50 (recombinant human PIM1; Table 45) [nM] | Compound | other results
28 | – | – | < 1000 | OCc1cccc2c1nc(Nc1cccc(Cl)c1)c1ccncc12 | –
29 | – | – | > 1100 | O=C(O)c1cccc2c1nc(Nc1cccc(Cl)c1)c1cnccc12 | –
30 | – | – | > 1100 | CN(C)CCNC(=O)c1cccc2c1nc(Nc1cccc(Cl)c1)c1ccncc12 | –
31 | – | – | > 1100 | COCCNC(=O)c1cccc2c1nc(Nc1cccc(Cl)c1)c1ccncc12 | –
32 | – | – | > 1100 | COC(=O)c1cccc2c1nc(Nc1cccc(Cl)c1)c1ccncc12 | –
33 | – | – | > 1100 | CN(C)C(=O)c1cccc2c1nc(Nc1cccc(Cl)c1)c1ccncc12 | –
34 | – | – | > 1100 | O=C(NCc1ccccc1)c1cccc2c1nc(Nc1cccc(Cl)c1)c1ccncc12 | –
35 | – | – | > 1100 | O=C(c1cccc2c1nc(Nc1cccc(Cl)c1)c1ccncc12)N1CCOCC1 | –
36 | – | – | > 1100 | O=C(NC1CC1)c1cccc2c1nc(Nc1cccc(Cl)c1)c1ccncc12 | –
37 | – | – | > 1100 | O=C(Nc1ccccc1)c1cccc2c1nc(Nc1cccc(Cl)c1)c1ccncc12 | –
38 | – | – | > 1100 | CONC(=O)c1cccc2c1nc(Nc1cccc(Cl)c1)c1ccncc12 | –
39 | – | – | < 5000 | NNC(=O)c1cccc2c1nc(Nc1cccc(Cl)c1)c1ccncc12 | –
40 | – | – | > 1100 | Clc1cccc(Nc2nc3c(-c4nnco4)cccc3c3cnccc23)c1 | –
41 | – | – | > 1100 | N#Cc1cccc2c1nc(Nc1cccc(Cl)c1)c1ccncc12 | –
42 | – | – | > 1100 | O=C(O)c1cccc2c1nc(Nc1cccc(Cl)c1)c1ccncc12 [drawing 2271] | –
43 | – | – | > 1100 | COC(=O)c1cccc2c1nc(Nc1ccccc1)c1ccncc12 [drawing 2272] | –
44 | – | – | > 1100 | O=C(O)c1cccc2c1nc(Nc1ccccc1)c1ccncc12 [drawing 2273] | –
45 | – | – | > 1100 | CNC(=O)c1cccc2c1nc(Nc1cccc(Cl)c1)c1ccncc12 [drawing 2277] | –
